# Values joined by “and” are separate entries in the source; they are usually repeats but may differ in a detail not shown here. Identical values can stand only once. Active and inactive are the calls of the source.
# Columns and labels:
# Beta-galactosidase = Beta-galactosidase (Escherichia coli, UniProt Q8VNN2); assay: detection-enzyme interference by beta-gal modulators – biochemical, E. coli enzyme, set 3, artefact control for CCR6 antagonist project, dose response (AID 504712); type: functional
# [1] = Fluorescence-based cell-based high throughput dose response assay for inhibitors of the interaction of nucleotide-binding oligomerization domain containing 2 (NOD2) and the receptor-interacting serine-threonine kinase 2 (RIPK2).; type: functional; settings: Homo sapiens
# [2] = molecular target: Nucleotide-binding oligomerization domain-containing protein 2 (Homo sapiens, UniProt Q9HC29); assay: inhibition of NOD2-driven NF-kB reporter – cell-based, luminescence, uHTS, HEK293 (AID 1566); type: functional
# [3] = COV434 cell viability loss – plate reader, dry powder, SA7, cytotoxicity control for PAX8 inhibitor project, dose response (AID 743145); type: functional, cell-based
# [4] = PAX8-dependent cell viability loss – plate reader, dry powder, dose response (AID 743049); type: functional, cell-based
# [5] = COV362 cell viability loss – plate reader, dry powder, SA12, cytotoxicity control for PAX8 inhibitor project, dose response (AID 743144); type: functional, cell-based
# [6] = OVCAR4 cell viability loss – plate reader, dry powder, SA11, cytotoxicity control for PAX8 inhibitor project, dose response (AID 743150); type: functional, cell-based; settings: OVCAR-4
# HEK293 [7] = assay: cells; type: functional, cell-based; settings: Homo sapiens
# [8] = IGROV1 cell killing – plate reader, dry powder samples, PAX8 inhibitor project, dose response (AID 743043); type: functional, cell-based; settings: IGROV-1
# Paired box protein Pax-8 = Paired box protein Pax-8 (Homo sapiens, UniProt Q06710); assay: PAX8 transcriptional activity inhibition in RMG-I – RMG-I cells, luciferase, cherry-pick, dose response (AID 687027); type: functional, cell-based;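 also: luciferase reporter driven by Pax8 target thyroperoxidase promoter measured by SteadyGlo luminescence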
# Beta Lactamase = Beta Lactamase (Pseudomonas aeruginosa, UniProt Q932Y6); assay: BLA reporter interference, concentration series – BLA reporter cells, FRET fluorescence, artefact control for NOD2-RIPK2 interaction inhibitor project, dose response (AID 651552); type: functional, cell-based
# [9] = OV-90 cell viability loss – plate reader, dry powder, SA8, PAX8 inhibitor project, dose response (AID 743149); type: functional, cell-based
# HEK293 [10] = assay: NOD2 signaling inhibitors in MDP-stimulated cells, cell-based, uHTS, luminescence (AID 2001); type: functional; settings: Homo sapiens
# [11] = OVCAR-3 cell viability loss – plate reader, dry powder samples, PAX8 inhibitor project, dose response (AID 743044); type: functional, cell-based
# HEK293 [12] = assay: cells; type: functional, cell-based; settings: Homo sapiens; remark: listed apart in the source
# HEK293 [13] = assay: inhibition of NOD1-driven NF-kB reporter – cell-based, luminescence, uHTS, primary screen (AID 1578); type: functional; settings: Homo sapiens
# HEK293 [14] = assay: cells; type: functional, cell-based; settings: Homo sapiens; remark: listed apart in the source
# [15] = molecular target: T1, DNA repair protein RAD52 homolog (Homo sapiens, UniProt P43351); type: functional, biochemical
# T1 sequence (P43351 whole entry): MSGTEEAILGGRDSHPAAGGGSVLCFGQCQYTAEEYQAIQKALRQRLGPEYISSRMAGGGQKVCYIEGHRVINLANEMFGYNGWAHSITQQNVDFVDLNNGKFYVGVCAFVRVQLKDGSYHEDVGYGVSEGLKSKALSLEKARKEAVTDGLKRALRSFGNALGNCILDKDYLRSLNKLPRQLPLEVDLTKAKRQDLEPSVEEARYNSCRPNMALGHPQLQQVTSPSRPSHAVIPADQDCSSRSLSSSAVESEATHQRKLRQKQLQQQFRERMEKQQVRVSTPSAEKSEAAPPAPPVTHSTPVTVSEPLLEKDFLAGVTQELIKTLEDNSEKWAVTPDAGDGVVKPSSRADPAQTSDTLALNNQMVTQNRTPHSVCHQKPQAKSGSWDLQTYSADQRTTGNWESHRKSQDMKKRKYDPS
# Melanocortin receptor 4 = Melanocortin receptor 4 (Homo sapiens, UniProt P32245); assay: inhibitors of MC4R cAMP signaling – cell-based, TR-FRET, biased antagonists, dose response (AID 602298); type: functional;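 also: antagonist potency against agonist-stimulated cAMP production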
# CAAX prenyl protease 2 [16] = molecular target: CAAX prenyl protease 2 (Homo sapiens, UniProt Q9Y256); assay: inhibition of Ras-converting CAAX protease Rce1 – biochemical, yeast membranes, quenched-peptide fluorescence, cherry-pick, dose response (AID 588849)
# [17] = molecular target: ATP-dependent molecular chaperone HSP82 (Candida albicans (strain WO-1) (Yeast), UniProt C4YTQ8); assay: steroid-induced GRE reporter decrease in yeast – S. cerevisiae, luminescence, Hsp90 inhibitor project, dose response (AID 2400); type: functional, cell-based;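 also: beta-galactosidase luminescence from glucocorticoid response element reporter as proxy for Hsp90 function; inhibitor potency where signal loss means Hsp90 inhibition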
# CAAX prenyl protease 2 [18] = molecular target: T2, CAAX prenyl protease 2 (Saccharomyces cerevisiae S288c, UniProt Q03530); type: biochemical
# T2 sequence (Q03530 whole entry): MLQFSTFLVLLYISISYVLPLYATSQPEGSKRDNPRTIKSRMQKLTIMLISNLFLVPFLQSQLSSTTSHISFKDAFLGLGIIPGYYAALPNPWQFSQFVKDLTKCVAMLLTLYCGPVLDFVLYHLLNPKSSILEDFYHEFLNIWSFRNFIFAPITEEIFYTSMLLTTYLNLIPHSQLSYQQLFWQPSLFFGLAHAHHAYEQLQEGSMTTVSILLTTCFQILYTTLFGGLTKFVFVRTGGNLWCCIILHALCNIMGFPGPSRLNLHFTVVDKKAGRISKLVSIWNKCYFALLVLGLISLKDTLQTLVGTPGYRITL
# [19] = molecular target: T3, Rac GTPase-activating protein 1 (Homo sapiens, UniProt Q9H0H5); assay: blockers of MgcRacGAP-driven Rac1 GTP hydrolysis – biochemical, ADP Hunter fluorescence, primary and confirmatory, confirmation (AID 624330); type: functional
# T3 sequence (Q9H0H5 whole entry): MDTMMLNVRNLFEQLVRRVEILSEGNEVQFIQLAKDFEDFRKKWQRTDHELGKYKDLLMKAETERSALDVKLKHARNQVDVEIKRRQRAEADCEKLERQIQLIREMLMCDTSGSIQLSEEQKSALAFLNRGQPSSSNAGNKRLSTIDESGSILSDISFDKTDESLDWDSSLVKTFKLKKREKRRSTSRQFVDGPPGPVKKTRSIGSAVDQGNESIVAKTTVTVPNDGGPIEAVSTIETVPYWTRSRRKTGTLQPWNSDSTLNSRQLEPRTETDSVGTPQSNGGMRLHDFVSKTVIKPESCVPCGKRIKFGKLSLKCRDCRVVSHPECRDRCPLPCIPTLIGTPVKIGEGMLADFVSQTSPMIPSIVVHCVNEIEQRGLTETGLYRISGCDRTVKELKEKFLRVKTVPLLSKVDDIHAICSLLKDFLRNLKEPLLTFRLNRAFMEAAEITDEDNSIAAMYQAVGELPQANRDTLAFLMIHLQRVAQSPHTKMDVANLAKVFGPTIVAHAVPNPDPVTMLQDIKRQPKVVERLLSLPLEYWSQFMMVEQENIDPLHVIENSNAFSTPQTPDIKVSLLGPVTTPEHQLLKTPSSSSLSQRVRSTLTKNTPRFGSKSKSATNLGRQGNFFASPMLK
# [20] = molecular target: Hepatocyte nuclear factor 4-alpha (Homo sapiens, UniProt P41235); type: functional, cell-based;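 also: biochemical luminescence-based dose-response counterscreen measuring inhibition of HNF4 dimerization, run alongside a screen for blockers of ABHD5–perilipin-5 interaction; split luciferase complementation of HNF4 fusion proteins in cell lysate measuring dimerization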
# [21] = molecular target: T4, Sentrin-specific protease 8 (Homo sapiens, UniProt Q96LD8); type: functional
# T4 sequence (Q96LD8 whole entry): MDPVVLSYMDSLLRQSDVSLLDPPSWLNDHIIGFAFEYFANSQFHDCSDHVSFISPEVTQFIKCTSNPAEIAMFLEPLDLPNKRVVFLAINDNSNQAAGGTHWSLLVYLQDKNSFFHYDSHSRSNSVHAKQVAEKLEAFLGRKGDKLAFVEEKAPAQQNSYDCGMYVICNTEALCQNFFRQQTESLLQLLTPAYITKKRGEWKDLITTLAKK
# [22] = inhibition of ARNT PAS-B/TACC3 complex formation – biochemical, AlphaScreen, cherry-picked samples, confirmation (AID 651703); type: functional, Homo sapiens;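 also: His-tagged ARNT PAS-B domain paired with GST-TACC3 E629A dimer coactivator fragment; potency of inhibitors that break up the complex and lower AlphaScreen signal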
# [23] = molecular target: T4, Sentrin-specific protease 8; type: functional; remark: listed apart in the source
# [24] = molecular target: Aryl hydrocarbon receptor (Homo sapiens, UniProt P35869); settings: Potency;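 also: confirmatory quantitative high-throughput screen measuring activation of the AhR signaling pathway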
# Protein Wnt-3a = Protein Wnt-3a (Mus musculus, UniProt P27467); assay: antagonism of Wnt3a pathway luciferase reporter – Wnt-LIGHT cells, luminescence, selectivity assay for Gli-SUFU antagonist project, dose response (AID 651570); type: functional; settings: read-out: IC50_Mean;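 also: Wnt-LIGHT reporter cells stimulated with conditioned medium from Wnt3a-producing cells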
# [25] = reduction of Shn3 3'UTR-driven luciferase in osteoblasts – cell-based, Clone20 osteoblasts, firefly luciferase, cherry-picked, dose response (AID 624132); type: functional;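 also: firefly luciferase luminescence from reporter carrying the Shn3 3'UTR in osteoblasts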
# [26] = loss of viability in HepG2 cells – cell-based, CellTiter-Glo, cherry-picked, cytotoxicity control for Shn3 inhibitor project, dose response (AID 624134); type: functional
# [27] = non-specific 3'UTR reporter inhibition in Clone20-Shn3RL – cell-based, Renilla luciferase, cherry-picked, counter-screen for Shn3 inhibitor project, dose response (AID 624133); type: functional
# [28] = alpha-synuclein stem-loop luciferase translation blockers – H4 neuroglioma cells, luminescence, confirmation (AID 1988); type: functional, cell-based
# [29] = Luminescence Cell-Based Dose Response HTS to Identify Inhibitors of 5'UTR Stem-Loop Driven Prion Protein mRNA Translation in H4 Neuroglioblastoma Cells. [Related pubchem assays: 1827 (Project Summary), 1813 (Primary HTS)]; type: functional
# [30] = molecular target: DNA (cytosine-5)-methyltransferase 1 (Homo sapiens, UniProt P26358); assay: inhibition of DNA methylation by DNMT1 – biochemical, fluorescent molecular beacon, confirmation (AID 602386); type: functional
# ATP-dependent molecular chaperone HSP82, sequence (C4YTQ8 whole entry): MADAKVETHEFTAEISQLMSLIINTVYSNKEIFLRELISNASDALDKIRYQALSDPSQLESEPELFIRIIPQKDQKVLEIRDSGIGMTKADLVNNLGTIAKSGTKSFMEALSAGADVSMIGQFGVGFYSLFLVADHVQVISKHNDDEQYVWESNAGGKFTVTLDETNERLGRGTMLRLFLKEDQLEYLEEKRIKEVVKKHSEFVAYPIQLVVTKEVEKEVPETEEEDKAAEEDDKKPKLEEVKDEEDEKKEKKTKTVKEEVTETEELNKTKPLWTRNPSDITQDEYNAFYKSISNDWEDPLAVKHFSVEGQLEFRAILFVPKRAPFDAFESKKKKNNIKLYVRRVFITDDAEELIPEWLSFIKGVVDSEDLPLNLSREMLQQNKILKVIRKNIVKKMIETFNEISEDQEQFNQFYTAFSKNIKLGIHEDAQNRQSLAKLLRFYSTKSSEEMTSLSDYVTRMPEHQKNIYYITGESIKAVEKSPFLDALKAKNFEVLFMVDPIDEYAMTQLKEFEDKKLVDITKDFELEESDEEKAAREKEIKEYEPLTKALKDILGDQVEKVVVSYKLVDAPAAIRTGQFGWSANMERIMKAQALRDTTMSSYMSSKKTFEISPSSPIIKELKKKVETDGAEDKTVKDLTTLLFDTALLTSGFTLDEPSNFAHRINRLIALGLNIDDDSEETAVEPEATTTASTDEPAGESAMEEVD
# Hepatocyte nuclear factor 4-alpha, sequence (P41235 whole entry, the tested form may be a part): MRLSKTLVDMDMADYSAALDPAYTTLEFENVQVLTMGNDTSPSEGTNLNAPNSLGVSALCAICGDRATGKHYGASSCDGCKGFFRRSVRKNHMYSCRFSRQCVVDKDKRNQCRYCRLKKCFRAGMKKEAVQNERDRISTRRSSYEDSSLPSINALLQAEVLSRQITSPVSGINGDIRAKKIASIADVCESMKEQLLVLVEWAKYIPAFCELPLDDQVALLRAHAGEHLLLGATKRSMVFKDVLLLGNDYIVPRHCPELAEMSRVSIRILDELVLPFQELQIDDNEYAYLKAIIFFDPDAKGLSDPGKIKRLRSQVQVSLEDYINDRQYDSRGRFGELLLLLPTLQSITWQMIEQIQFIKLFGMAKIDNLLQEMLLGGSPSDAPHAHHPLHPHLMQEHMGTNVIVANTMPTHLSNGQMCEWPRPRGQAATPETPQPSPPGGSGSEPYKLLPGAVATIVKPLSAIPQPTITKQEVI
# Nucleotide-binding oligomerization domain-containing protein 2, sequence (Q9HC29 whole entry, the tested form may be a part): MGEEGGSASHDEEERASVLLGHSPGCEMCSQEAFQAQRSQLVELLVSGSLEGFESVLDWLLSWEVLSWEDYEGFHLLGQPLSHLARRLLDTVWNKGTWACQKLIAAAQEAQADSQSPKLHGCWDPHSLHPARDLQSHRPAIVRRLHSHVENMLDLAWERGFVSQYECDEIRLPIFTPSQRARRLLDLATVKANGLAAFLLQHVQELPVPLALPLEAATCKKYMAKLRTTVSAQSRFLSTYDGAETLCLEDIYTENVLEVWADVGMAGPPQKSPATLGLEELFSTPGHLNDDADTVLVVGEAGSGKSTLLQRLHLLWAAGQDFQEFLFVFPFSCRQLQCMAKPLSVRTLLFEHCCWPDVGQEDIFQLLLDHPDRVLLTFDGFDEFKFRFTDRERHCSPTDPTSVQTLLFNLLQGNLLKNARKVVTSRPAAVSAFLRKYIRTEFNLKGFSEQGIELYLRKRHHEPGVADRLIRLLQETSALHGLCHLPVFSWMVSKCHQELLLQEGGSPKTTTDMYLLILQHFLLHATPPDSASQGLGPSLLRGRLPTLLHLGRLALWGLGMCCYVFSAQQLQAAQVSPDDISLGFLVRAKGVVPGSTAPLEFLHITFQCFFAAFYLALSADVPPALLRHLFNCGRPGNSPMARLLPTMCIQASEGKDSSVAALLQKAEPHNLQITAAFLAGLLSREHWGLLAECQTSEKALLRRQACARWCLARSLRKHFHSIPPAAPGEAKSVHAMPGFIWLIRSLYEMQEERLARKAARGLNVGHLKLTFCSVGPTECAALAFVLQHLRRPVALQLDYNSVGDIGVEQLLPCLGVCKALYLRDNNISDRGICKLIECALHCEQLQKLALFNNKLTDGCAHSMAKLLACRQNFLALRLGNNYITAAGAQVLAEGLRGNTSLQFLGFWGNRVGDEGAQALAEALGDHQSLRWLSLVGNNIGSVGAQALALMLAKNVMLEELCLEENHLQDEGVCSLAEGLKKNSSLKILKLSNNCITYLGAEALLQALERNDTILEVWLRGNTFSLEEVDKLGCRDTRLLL
# CAAX prenyl protease 2 (Homo sapiens, UniProt Q9Y256), sequence (Q9Y256 whole entry): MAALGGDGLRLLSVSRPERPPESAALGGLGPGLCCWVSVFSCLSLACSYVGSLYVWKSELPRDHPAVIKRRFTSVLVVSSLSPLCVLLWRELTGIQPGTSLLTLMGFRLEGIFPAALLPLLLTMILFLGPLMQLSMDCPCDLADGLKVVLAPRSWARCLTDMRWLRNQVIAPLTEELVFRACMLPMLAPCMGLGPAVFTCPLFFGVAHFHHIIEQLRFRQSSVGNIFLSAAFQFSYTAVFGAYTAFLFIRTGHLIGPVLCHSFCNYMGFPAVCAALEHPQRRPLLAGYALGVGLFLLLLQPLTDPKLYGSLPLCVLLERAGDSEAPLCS
# Protein Wnt-3a, sequence (P27467 whole entry): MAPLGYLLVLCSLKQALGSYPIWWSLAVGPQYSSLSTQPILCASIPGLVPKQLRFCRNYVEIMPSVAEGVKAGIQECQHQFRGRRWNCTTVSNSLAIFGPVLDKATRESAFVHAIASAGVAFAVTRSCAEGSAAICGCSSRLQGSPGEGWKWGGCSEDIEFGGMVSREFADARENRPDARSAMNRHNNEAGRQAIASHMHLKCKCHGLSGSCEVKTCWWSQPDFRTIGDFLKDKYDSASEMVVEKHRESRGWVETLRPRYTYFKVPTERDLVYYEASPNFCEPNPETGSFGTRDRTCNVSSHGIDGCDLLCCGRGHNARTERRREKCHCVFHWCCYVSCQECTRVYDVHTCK
# Beta Lactamase, sequence (Q932Y6 whole entry): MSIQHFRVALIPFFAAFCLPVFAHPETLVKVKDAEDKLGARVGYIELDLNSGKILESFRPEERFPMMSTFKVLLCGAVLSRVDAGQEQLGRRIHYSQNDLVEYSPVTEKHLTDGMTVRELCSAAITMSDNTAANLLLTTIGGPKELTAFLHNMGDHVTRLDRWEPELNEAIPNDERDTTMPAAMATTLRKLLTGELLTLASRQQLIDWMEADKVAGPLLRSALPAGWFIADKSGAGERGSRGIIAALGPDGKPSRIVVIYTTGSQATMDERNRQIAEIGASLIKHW
# Aryl hydrocarbon receptor, sequence (P35869 whole entry): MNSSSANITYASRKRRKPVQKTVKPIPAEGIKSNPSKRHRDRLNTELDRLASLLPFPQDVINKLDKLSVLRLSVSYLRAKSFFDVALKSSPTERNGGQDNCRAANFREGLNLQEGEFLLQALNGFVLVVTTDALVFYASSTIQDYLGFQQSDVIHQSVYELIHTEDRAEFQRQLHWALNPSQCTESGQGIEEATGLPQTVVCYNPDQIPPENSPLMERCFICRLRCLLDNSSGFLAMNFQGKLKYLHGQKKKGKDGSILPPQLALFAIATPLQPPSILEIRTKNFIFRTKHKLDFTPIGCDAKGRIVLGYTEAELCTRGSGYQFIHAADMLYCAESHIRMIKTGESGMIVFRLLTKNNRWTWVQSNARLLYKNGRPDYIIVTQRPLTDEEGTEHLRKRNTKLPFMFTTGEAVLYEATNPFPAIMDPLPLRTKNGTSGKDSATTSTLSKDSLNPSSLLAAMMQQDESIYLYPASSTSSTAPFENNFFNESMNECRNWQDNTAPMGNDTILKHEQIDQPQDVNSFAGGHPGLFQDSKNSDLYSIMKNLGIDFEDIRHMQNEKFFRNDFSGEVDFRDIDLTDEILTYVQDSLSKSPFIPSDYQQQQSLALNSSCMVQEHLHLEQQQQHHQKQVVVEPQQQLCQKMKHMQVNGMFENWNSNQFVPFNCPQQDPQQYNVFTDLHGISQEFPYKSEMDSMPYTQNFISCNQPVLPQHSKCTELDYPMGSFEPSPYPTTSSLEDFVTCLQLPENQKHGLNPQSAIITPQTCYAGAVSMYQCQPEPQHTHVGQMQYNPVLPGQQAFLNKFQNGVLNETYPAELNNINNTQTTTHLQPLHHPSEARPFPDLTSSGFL
# Paired box protein Pax-8, sequence (Q06710 whole entry): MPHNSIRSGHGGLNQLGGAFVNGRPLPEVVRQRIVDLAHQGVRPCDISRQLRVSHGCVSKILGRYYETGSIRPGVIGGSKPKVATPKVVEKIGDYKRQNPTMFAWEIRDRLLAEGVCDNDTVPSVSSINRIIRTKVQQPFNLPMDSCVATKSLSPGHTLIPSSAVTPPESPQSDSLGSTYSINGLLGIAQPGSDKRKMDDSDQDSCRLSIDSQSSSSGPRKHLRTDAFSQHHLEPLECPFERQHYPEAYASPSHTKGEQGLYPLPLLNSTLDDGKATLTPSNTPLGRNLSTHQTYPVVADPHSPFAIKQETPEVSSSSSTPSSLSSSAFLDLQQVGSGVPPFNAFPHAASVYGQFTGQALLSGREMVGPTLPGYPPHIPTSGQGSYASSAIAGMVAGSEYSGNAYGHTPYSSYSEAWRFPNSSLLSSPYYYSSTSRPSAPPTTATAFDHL
# Melanocortin receptor 4, sequence (P32245 whole entry): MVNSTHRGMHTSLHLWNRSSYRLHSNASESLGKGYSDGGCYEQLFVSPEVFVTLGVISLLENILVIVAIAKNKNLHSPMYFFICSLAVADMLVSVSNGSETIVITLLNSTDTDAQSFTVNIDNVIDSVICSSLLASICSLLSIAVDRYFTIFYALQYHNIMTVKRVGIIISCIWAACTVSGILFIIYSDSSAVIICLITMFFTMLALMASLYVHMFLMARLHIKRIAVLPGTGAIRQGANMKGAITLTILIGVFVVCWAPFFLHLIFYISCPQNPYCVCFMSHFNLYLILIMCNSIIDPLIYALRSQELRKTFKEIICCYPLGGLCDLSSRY
structure (smiles),measurement,setting,value
COc1cccc2sc(N(CCCN(C)C)C(=O)CCS(=O)(=O)c3ccccc3)nc12,IC50,Beta-galactosidase,> 66.6 µM (inactive)
same,IC50,[1],4.68 µM (active)
same,EC50,[2],> 20 µM (inactive)
same,AC50,[3],12.9 µM (active)
same,AC50,[4],8.54 µM (active)
same,AC50,[5],13.9 µM (active)
same,AC50,[6],22.1 µM (active)
same,IC50,HEK293 [7],> 20 µM (inactive)
same,AC50,[8],28.7 µM (active)
same,AC50,Paired box protein Pax-8,7.04 µM (active)
same,IC50,Beta Lactamase,17.2 µM (inactive)
same,AC50,[9],43.1 µM (active)
same,IC50,HEK293 [10],6.06 µM (active)
same,AC50,[11],10 µM (active)
same,IC50,HEK293 [12],5.96 µM (active)
same,EC50,HEK293 [13],8.24 µM (active)
same,IC50,HEK293 [14],> 20 µM (inactive)
[H]/N=C(\N/C(=N/[H])NCCCCCCNC(=N)NC(=N)Nc1ccc(Cl)cc1)Nc1ccc(Cl)cc1,AC50,[15],17.4 µM (active)
same,IC50,Melanocortin receptor 4,1.55 µM (active)
same,AC50,CAAX prenyl protease 2 [16],12.9 µM (active)
same,EC50,[17],19.8 µM (active) and > 160 µM (inactive)
same,AC50,CAAX prenyl protease 2 [18],23.1 µM (active)
same,IC50,[19],42.3 µM (active)
same,IC50,[20],21.4 µM (inactive)
Cc1ccoc1C(=O)NCCCNC(=O)c1occc1C,IC50,[21],8.27 µM (active)
same,AC50,[22],84.7 µM (active)
same,IC50,[23],12.7 µM (active)
Nc1ccc(N)c(Cl)c1,AC50,[24],31.6 µM (inconclusive)
COCCOc1nc2c(c(=O)n(C)c(=O)n2C)n1Cc1cccc(OC)c1,IC50,Protein Wnt-3a,6.29 µM (active)
same,AC50,[25],2.23 µM (active)
same,AC50,[26],59.9 µM (active)
same,AC50,[27],4.09 µM (active)
CC1(C)CC(N=c2cc(-c3ccccc3)oc3ccc(Cl)cc23)CC(C)(C)N1,AC50,[15],0.689 µM (active)
same,EC50,[28],> 60 µM (not active)
same,EC50,[29],> 120 µM (not active)
same,IC50,[30],> 99 µM (inactive)

# From ChEMBL document CHEMBL1201862, “PubChem BioAssay data set” (2004)
